# Measurements as given in patent US20160089391A1, “Molecular Targets for Cardiovascular Disease” (Temple University-of the Commonwealth System of Higher …, priority 2014, published 2016).
# Tests used:
# [1] = tested on: aorta of HHcy and HHcy/HG Cbs−/+ mice; test: Endothelium-dependent vascular relaxation to ACh in thoracic aorta after in vivo calpain inhibitor administration; parameters: species or system mouse; details: 2 mg/kg BW i.p. daily for 2 weeks, p<0.05
# Protocol: Images (Left Panel) and quantification (Right Panel) showing HHcy and HG activates calpain in mouse aortic endothelial cells (MAECs, P0) isolated from CBS^−/+ mice (FIG. 3A). Calpain activity was measured in intact MAECs by the fluorescent substrate t-BOC-Leu-Met-CMAC (T-BOC, 10 μmol/L, 30 min). In FIG. 3B, calpain inhibitors rescued endothelium-dependent vascular relaxation to ACh in the aorta of HHcy CBS^−/+ and HHcy/HG CBS^−/+ mice in the presence of calpain inhibitors in vivo (Left Panel) and ex vivo (Right Panel). Left Panel: Calpain inhibitor MDL28170 (MDL, Sigma #M6690) was administrated in vivo by i.p. injection (2 mg/kg/day, 2 weeks). Right Panel: The arterial rings were incubated with calpain inhibitors: MDL, calpeptin and N-Acetyl-Leu-Leu-Met-CHO (ALLM, 20 μmol/L for all, Enzo life Sciences, PI-100-0005) for 1 hr. […]
# Endothelial function was assessed in the mouse thoracic aorta using a multiple-wire myograph (DMT 610) (Cheng et al., 2011, Blood 118:1998-2006; Cheng et al., 2007, Can J Physiol Pharmacol 85:404-412; Cheng et al., 2001, Hypertension 37:433-439). […]
# mouse thoracic aorta = test: Endothelium-dependent vascular relaxation to ACh in aortic rings treated ex vivo (multiple-wire myograph); details: aortic rings of HHcy/HG-Cbs−/+ mice preincubated with calpain inhibitor 20 μmol/L for 1 hour; p<0.05
substance,measurement,setting,value
MDL28170,endothelial function (endothelium-dependent vascular relaxation to ACh),[1],largely improved
same,aortic endothelium-dependent vascular relaxation to ACh,mouse thoracic aorta,markedly improved
